Experimental data: ChEMBL document CHEMBL2424599, “Design, synthesis, docking study and biological evaluation of some novel tetrahydrochromeno [3',4':5,6]pyrano[2,3-b]quinolin-6(7H)-one derivatives against acetyl- and butyrylcholinesterase” (Eur J Med Chem, 2013)

Tests used:
Cholinesterase = Cholinesterase (Equus caballus, UniProt P81908)
Description: Inhibition of equine serum BChE using butyrylthiocholine iodide as substrate preincubated for 10 mins prior to substrate addition by Ellman's method

Acetylcholinesterase [1] = target: T1, Acetylcholinesterase (Electrophorus electricus, UniProt O42275)
Description: Inhibition of electric eel AChE using acetylthiocholine iodide as substrate preincubated for 10 mins prior to substrate addition by Ellman's method

Acetylcholinesterase [2] = target: T1, Acetylcholinesterase; test: Mixed-type inhibition of electric eel AChE using acetylthiocholine iodide as substrate by Lineweaver-Burk plot analysis

T1 sequence (O42275 whole entry): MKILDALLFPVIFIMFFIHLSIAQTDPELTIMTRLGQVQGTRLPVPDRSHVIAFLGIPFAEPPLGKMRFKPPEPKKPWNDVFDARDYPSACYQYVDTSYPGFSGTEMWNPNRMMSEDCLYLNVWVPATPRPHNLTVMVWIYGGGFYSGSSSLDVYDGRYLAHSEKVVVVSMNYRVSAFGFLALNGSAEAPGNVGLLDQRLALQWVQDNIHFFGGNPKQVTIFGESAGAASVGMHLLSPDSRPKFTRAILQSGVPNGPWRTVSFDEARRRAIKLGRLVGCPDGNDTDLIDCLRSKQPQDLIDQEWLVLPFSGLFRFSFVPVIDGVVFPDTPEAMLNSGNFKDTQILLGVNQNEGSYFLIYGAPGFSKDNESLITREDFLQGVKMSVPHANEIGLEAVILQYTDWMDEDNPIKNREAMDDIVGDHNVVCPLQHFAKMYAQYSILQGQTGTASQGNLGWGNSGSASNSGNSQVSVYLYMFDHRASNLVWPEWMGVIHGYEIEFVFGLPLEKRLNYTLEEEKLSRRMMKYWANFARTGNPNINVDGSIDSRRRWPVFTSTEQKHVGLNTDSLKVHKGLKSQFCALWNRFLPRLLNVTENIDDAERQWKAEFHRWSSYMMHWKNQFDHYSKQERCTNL
Chain of Cholinesterase (P81908 whole entry): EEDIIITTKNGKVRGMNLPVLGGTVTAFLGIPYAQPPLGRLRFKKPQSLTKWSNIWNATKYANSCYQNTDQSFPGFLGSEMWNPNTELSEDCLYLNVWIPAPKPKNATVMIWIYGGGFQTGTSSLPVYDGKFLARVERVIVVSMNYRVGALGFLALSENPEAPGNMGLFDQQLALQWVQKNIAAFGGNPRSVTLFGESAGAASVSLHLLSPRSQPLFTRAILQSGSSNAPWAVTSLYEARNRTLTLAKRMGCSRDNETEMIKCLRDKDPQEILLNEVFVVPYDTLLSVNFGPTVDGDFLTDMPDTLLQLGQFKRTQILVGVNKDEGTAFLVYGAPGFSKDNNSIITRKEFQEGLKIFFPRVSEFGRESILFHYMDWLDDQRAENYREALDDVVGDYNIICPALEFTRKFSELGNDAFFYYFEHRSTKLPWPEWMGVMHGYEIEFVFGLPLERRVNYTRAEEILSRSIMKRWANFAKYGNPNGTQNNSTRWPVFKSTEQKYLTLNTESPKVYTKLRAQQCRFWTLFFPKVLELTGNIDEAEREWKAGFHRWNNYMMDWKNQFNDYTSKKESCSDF

CCC1c2c(nc3c(c2N)CCCC3)Oc2c1c(=O)oc1ccccc21 (configuration not stated)
IC50 (Cholinesterase): 5600 nM
IC50 (Acetylcholinesterase [1]): 266 nM

CCCCC1c2c(nc3c(c2N)CCCC3)Oc2c1c(=O)oc1ccccc21 (configuration not stated)
IC50 (Cholinesterase): 23000 nM
IC50 (Acetylcholinesterase [1]): 57 nM

Nc1c2c(nc3c1C(c1ccccc1)c1c(c4ccccc4oc1=O)O3)CCCC2 (configuration not stated)
IC50 (Cholinesterase): 1700 nM
IC50 (Acetylcholinesterase [1]): 24 nM

Nc1c2c(nc3c1C(c1cccc(F)c1)c1c(c4ccccc4oc1=O)O3)CCCC2 (configuration not stated)
IC50 (Cholinesterase): 890 nM
IC50 (Acetylcholinesterase [1]): 67 nM

Nc1c2c(nc3c1C(c1ccc(F)cc1)c1c(c4ccccc4oc1=O)O3)CCCC2 (configuration not stated)
IC50 (Cholinesterase): 15700 nM
IC50 (Acetylcholinesterase [1]): 5 nM
Ki (Acetylcholinesterase [2]): 22.4 nM

Nc1c2c(nc3c1C(c1ccccc1Cl)c1c(c4ccccc4oc1=O)O3)CCCC2 (configuration not stated)
IC50 (Cholinesterase): 4900 nM
IC50 (Acetylcholinesterase [1]): 35 nM

Nc1c2c(nc3c1C(c1cccc(Cl)c1)c1c(c4ccccc4oc1=O)O3)CCCC2 (configuration not stated)
IC50 (Cholinesterase): > 30000 nM
IC50 (Acetylcholinesterase [1]): 288 nM

Nc1c2c(nc3c1C(c1ccc(Cl)cc1)c1c(c4ccccc4oc1=O)O3)CCCC2 (configuration not stated)
IC50 (Cholinesterase): > 30000 nM
IC50 (Acetylcholinesterase [1]): 93 nM

Nc1c2c(nc3c1C(c1ccc(Cl)cc1Cl)c1c(c4ccccc4oc1=O)O3)CCCC2 (configuration not stated)
IC50 (Cholinesterase): > 30000 nM
IC50 (Acetylcholinesterase [1]): 50 nM

Nc1c2c(nc3c1C(c1cccc([N+](=O)[O-])c1)c1c(c4ccccc4oc1=O)O3)CCCC2 (configuration not stated)
IC50 (Cholinesterase): 18300 nM
IC50 (Acetylcholinesterase [1]): 141 nM

Cc1ccc(C2c3c(nc4c(c3N)CCCC4)Oc3c2c(=O)oc2ccccc32)cc1 (configuration not stated)
IC50 (Cholinesterase): > 30000 nM
IC50 (Acetylcholinesterase [1]): 14 nM

COc1ccc(C2c3c(nc4c(c3N)CCCC4)Oc3c2c(=O)oc2ccccc32)cc1 (configuration not stated)
IC50 (Cholinesterase): 840 nM
IC50 (Acetylcholinesterase [1]): 16 nM

COc1ccc(C2c3c(nc4c(c3N)CCCC4)Oc3c2c(=O)oc2ccccc32)cc1OC (configuration not stated)
IC50 (Cholinesterase): 2100 nM
IC50 (Acetylcholinesterase [1]): 43 nM

COc1cc(C2c3c(nc4c(c3N)CCCC4)Oc3c2c(=O)oc2ccccc32)cc(OC)c1OC (configuration not stated)
IC50 (Cholinesterase): 3260 nM
IC50 (Acetylcholinesterase [1]): 69 nM

Nc1c2c(nc3c1C(c1ccc4c(c1)OCO4)c1c(c4ccccc4oc1=O)O3)CCCC2 (configuration not stated)
IC50 (Cholinesterase): 570 nM
IC50 (Acetylcholinesterase [1]): 13 nM

Nc1c2c(nc3c1C(c1ccncc1)c1c(c4ccccc4oc1=O)O3)CCCC2 (configuration not stated)
IC50 (Cholinesterase): > 30000 nM
IC50 (Acetylcholinesterase [1]): 53 nM

Nc1c2c(nc3c1C(c1cccs1)c1c(c4ccccc4oc1=O)O3)CCCC2 (configuration not stated)
IC50 (Cholinesterase): 6700 nM
IC50 (Acetylcholinesterase [1]): 84 nM

CC1c2c(nc3c(c2N)CCCC3)Oc2c1c(=O)oc1ccccc21 (configuration not stated)
IC50 (Cholinesterase): 1220 nM
IC50 (Acetylcholinesterase [1]): 432 nM
